# Experimental data from publication PMC11059095.
# Experiment: Brønsted acid catalysed 8-endo cationic carbocyclisation of biphenyl-embedded enynes (C-C bond between tertiary carbocation from protonated alkene and distal alkyne carbon); TfOH 10 mol%, vinyl cation trapped by H2O (1.1 equiv) or internal nucleophile
# Conditions: the molecule shown is the open-chain precursor; 8-membered ring; 1,2-dichloroethane; 50.0 mM; 60.0 °C
row,SMILES,"ring closure, isolated yield [%]"
1,CC(C)=Cc1ccccc1-c1ccccc1C#CCCO [1u -> 6u],31
2,COc1cccc(CC#Cc2ccccc2-c2ccccc2C=C(C)C)c1 [1v -> 6v],29

# Same assay, conditions: the molecule shown is the open-chain precursor; 8-membered ring; 1,2-dichloroethane; 50.0 mM; 60.0 °C; 2.0 h
row,SMILES,"ring closure, isolated yield [%]"
1,CC#Cc1ccccc1-c1cc(Cl)ccc1C=C(C)C [1p -> 3p],99
2,CC#Cc1cc(OC)ccc1-c1ccccc1C=C(C)C [1s -> 3s],70
3,CC#Cc1ccccc1-c1ccccc1C=C(C)C [1b -> 3b],99
4,CC#Cc1cc(Cl)ccc1-c1ccccc1C=C(C)C [1q -> 3q],95
5,CC#Cc1cc(OC)c(C)c(OC)c1-c1cc(Cl)ccc1C=C(C)C [1t -> 3t],45
6,CC#Cc1ccccc1-c1ccc(OC)cc1C=C(C)C [1r -> 3r],82
